Test results published in patent US20190345191A1, “CYCLIC DINUCLEOTIDE ANALOGS FOR TREATING CONDITIONS ASSOCIATED WITH STING (STIMULATOR OF INTERFERON GENES) ACTIVITY” (Innate Tumor Immunity, Inc., priority 2016, published 2019).

Test system: STING pathway
Assay: STING pathway activation in THP1-Dual cells, NFκB pathway SEAP reporter
Type: cell-based
Conditions: Homo sapiens, NFκB pathway reporter (secreted embryonic alkaline phosphatase, QUANTI-Blue, 620 nm), 24-hour or 48-hour assay duration not specified
Method: STING pathway activation by the compounds described herein was measured using THP1-Dual™ cells. These cells are THP1 monocytes that have been modified to be reporters for the NFκB pathway (by inducing secreted embryonic alkaline phosphatase (SEAP) expression) and the IRF pathway (by inducing secreted luciferase (LUCIA)). Both of these pathways are activated by STING agonists in these cells.
THP1 Dualtm cells (obtained from Invivogen) are maintained in a cell growth medium that includes Roswell Park Memorial Institute medium (RPMI), 10% fetal calf serum (FCS), 100 U/ml Pen/Strep, 2 mM L-glut, 10 mM Hepes, and 1 mM sodium pyruvate. Prior to the assay, the cells were transferred to an assay medium that includes RPMI, 5% FCS, 100 U/ml Pen/Strep, 2 mM L-glut, 10 mM Hepes, and 1 mM sodium pyruvate. Cells were then counted and evaluated for viability by trypan blue exclusion assay.
The compounds of the present invention can be assayed using, for example, the following procedure. Compounds were dissolved in water or DMSO depending, for example, on their solubility in water or DMSO. […]
To carry out the secreted embryonic alkaline phosphatase reporter, 10 μL of cell supernatant was mixed with 90 μL of QUANTI-Blue in a flat-bottom 384 well plate. […] SEAP activity was measured using a spectrophotometer set at 620 nm. […] Luminescence of the wells was then measured.

| SMILES | IC50 [µM] |
| --- | --- |
| Nc1ncnc2c1ncn2[C@@H]1O[C@@H]2CNC(=S)N[C@H]3[C@@H](O)[C@H](n4cnc5c(N)ncnc54)O[C@@H]3CNC(=S)N[C@H]2[C@H]1O [Compound 30, (2R,3R,3aS,7aR,9R,10R,10aS,14aR)-2,9-bis(6-amino-9H-purin-9-yl)-3,10-dihydroxydodecahydrodifuro[3,2-d:3′,2′-j][,3,7,9]tetraazacyclododecine-5,12(4H,6H)-dithione] | 25.4 |
| Nc1ncnc2c1ncn2[C@@H]1O[C@@H]2CNC(=O)N[C@H]3[C@@H](O)[C@H](n4cnc5c(N)ncnc54)O[C@@H]3CNC(=O)N[C@H]2[C@H]1O [Compound 31, (2R,3R,3aS,7aR,9R,10R,10aS,14aR)-2,9-bis(6-amino-9H-purin-9-yl)-3,10-dihydroxydodecahydrodifuro[3,2-d:3′,2′-j][1,3,7,9]tetraazacyclododecine-5, 12(4H,6H)-dione] | 22.2 |
